Results from PubChem BioAssay AID1963981 (Molecular Pharmacology Branch, DTP, NCI, 2024).

Each compound was assayed on 354836-022-R-J1-PDC multicell spheroid viability (assay: Anticancer human tumor 354836-022-R-J1-PDC patient-derived head and neck squamous cell carcinoma cell line growth inhibition [PI3K]). Conditions: second compound 0.1 µM; first compound 1 µM; active compounds read low.
Summary of the method: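 We assembled tumor spheroids that included a stromal compartment of HUVEC and MSCs, then exposed them to targeted agents alone and together with PI3K pathway inhibitors. Concentration series descended by half-log from clinically achievable Cmax levels. Viability served as the endpoint.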
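Further: spheroids exposed to agents for seven days before the viability read.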

| Compound | viability, T/C |
| --- | --- |
| C#Cc1c(F)ccc2cc(O)cc(-c3ncc4c(N5CC6CCC(C5)N6)nc(OCC56CCCN5CC(F)C6)nc4c3F)c12 (configuration not stated) + COc1c(OCCCN2CCOCC2)ccc2c3n(c(=NC(=O)c4cnc(N)nc4)nc12)CCN3 | 47.1% |
| CC(Cn1ccc(-c2ccc(C#N)c(Cl)c2)n1)NC(=O)c1cc(C(C)O)[nH]n1 (configuration not stated) + CC(Nc1ccc2c(c1)OCCn1cc(N3C(=O)OCC3C(F)F)nc1-2)C(N)=O | 87.3% |
| CNC(=O)c1ccc(N2C(=S)N(c3ccc(C#N)c(C(F)(F)F)c3)C(=O)C2(C)C)cc1F + Cc1nc(NC(=O)N2CCCC2C(N)=O)sc1-c1ccnc(C(C)(C)C(F)(F)F)c1 | 87.9% |
| Cn1ncc(Cl)c1-c1cc(C(=O)NC(CN)Cc2cccc(F)c2)sc1Cl (configuration not stated) + CC(Nc1ncnc2nc[nH]c12)c1cc2cccc(Cl)c2c(=O)n1-c1ccccc1 | 17.7% |

Same assay, conditions: second compound 0.1 µM; first compound 3.16 µM; active compounds read low

| Compound | viability, T/C |
| --- | --- |
| C#Cc1c(F)ccc2cc(O)cc(-c3ncc4c(N5CC6CCC(C5)N6)nc(OCC56CCCN5CC(F)C6)nc4c3F)c12 (configuration not stated) + COc1c(OCCCN2CCOCC2)ccc2c3n(c(=NC(=O)c4cnc(N)nc4)nc12)CCN3 | 45.6% |
| CC(Cn1ccc(-c2ccc(C#N)c(Cl)c2)n1)NC(=O)c1cc(C(C)O)[nH]n1 (configuration not stated) + CC(Nc1ccc2c(c1)OCCn1cc(N3C(=O)OCC3C(F)F)nc1-2)C(N)=O | 73.9% |
| CNC(=O)c1ccc(N2C(=S)N(c3ccc(C#N)c(C(F)(F)F)c3)C(=O)C2(C)C)cc1F + Cc1nc(NC(=O)N2CCCC2C(N)=O)sc1-c1ccnc(C(C)(C)C(F)(F)F)c1 | 109% |
| Cn1ncc(Cl)c1-c1cc(C(=O)NC(CN)Cc2cccc(F)c2)sc1Cl (configuration not stated) + CC(Nc1ncnc2nc[nH]c12)c1cc2cccc(Cl)c2c(=O)n1-c1ccccc1 | 5.21% |

Same assay, conditions: second compound 0.1 µM; first compound 10 µM; active compounds read low

| Compound | viability, T/C |
| --- | --- |
| C#Cc1c(F)ccc2cc(O)cc(-c3ncc4c(N5CC6CCC(C5)N6)nc(OCC56CCCN5CC(F)C6)nc4c3F)c12 (configuration not stated) + COc1c(OCCCN2CCOCC2)ccc2c3n(c(=NC(=O)c4cnc(N)nc4)nc12)CCN3 | 45.4% |
| CC(Cn1ccc(-c2ccc(C#N)c(Cl)c2)n1)NC(=O)c1cc(C(C)O)[nH]n1 (configuration not stated) + CC(Nc1ccc2c(c1)OCCn1cc(N3C(=O)OCC3C(F)F)nc1-2)C(N)=O | 82.9% |
| CNC(=O)c1ccc(N2C(=S)N(c3ccc(C#N)c(C(F)(F)F)c3)C(=O)C2(C)C)cc1F + Cc1nc(NC(=O)N2CCCC2C(N)=O)sc1-c1ccnc(C(C)(C)C(F)(F)F)c1 | 99.2% |
| Cn1ncc(Cl)c1-c1cc(C(=O)NC(CN)Cc2cccc(F)c2)sc1Cl (configuration not stated) + CC(Nc1ncnc2nc[nH]c12)c1cc2cccc(Cl)c2c(=O)n1-c1ccccc1 | 1.62% |

Same assay, conditions: second compound 0.316 µM; first compound 0.0316 µM; active compounds read low

| Compound | viability, T/C |
| --- | --- |
| C#Cc1c(F)ccc2cc(O)cc(-c3ncc4c(N5CC6CCC(C5)N6)nc(OCC56CCCN5CC(F)C6)nc4c3F)c12 (configuration not stated) + COc1c(OCCCN2CCOCC2)ccc2c3n(c(=NC(=O)c4cnc(N)nc4)nc12)CCN3 | 14.6% |
| CC(Cn1ccc(-c2ccc(C#N)c(Cl)c2)n1)NC(=O)c1cc(C(C)O)[nH]n1 (configuration not stated) + CC(Nc1ccc2c(c1)OCCn1cc(N3C(=O)OCC3C(F)F)nc1-2)C(N)=O | 75.3% |
| CNC(=O)c1ccc(N2C(=S)N(c3ccc(C#N)c(C(F)(F)F)c3)C(=O)C2(C)C)cc1F + Cc1nc(NC(=O)N2CCCC2C(N)=O)sc1-c1ccnc(C(C)(C)C(F)(F)F)c1 | 86.8% |
| Cn1ncc(Cl)c1-c1cc(C(=O)NC(CN)Cc2cccc(F)c2)sc1Cl (configuration not stated) + CC(Nc1ncnc2nc[nH]c12)c1cc2cccc(Cl)c2c(=O)n1-c1ccccc1 | 74.1% |

Same assay, conditions: second compound 0.316 µM; first compound 0.1 µM; active compounds read low

| Compound | viability, T/C |
| --- | --- |
| C#Cc1c(F)ccc2cc(O)cc(-c3ncc4c(N5CC6CCC(C5)N6)nc(OCC56CCCN5CC(F)C6)nc4c3F)c12 (configuration not stated) + COc1c(OCCCN2CCOCC2)ccc2c3n(c(=NC(=O)c4cnc(N)nc4)nc12)CCN3 | 14% |
| CC(Cn1ccc(-c2ccc(C#N)c(Cl)c2)n1)NC(=O)c1cc(C(C)O)[nH]n1 (configuration not stated) + CC(Nc1ccc2c(c1)OCCn1cc(N3C(=O)OCC3C(F)F)nc1-2)C(N)=O | 67.5% |
| CNC(=O)c1ccc(N2C(=S)N(c3ccc(C#N)c(C(F)(F)F)c3)C(=O)C2(C)C)cc1F + Cc1nc(NC(=O)N2CCCC2C(N)=O)sc1-c1ccnc(C(C)(C)C(F)(F)F)c1 | 99.6% |
| Cn1ncc(Cl)c1-c1cc(C(=O)NC(CN)Cc2cccc(F)c2)sc1Cl (configuration not stated) + CC(Nc1ncnc2nc[nH]c12)c1cc2cccc(Cl)c2c(=O)n1-c1ccccc1 | 52.5% |

Same assay, conditions: second compound 0.316 µM; first compound 0.316 µM; active compounds read low

| Compound | viability, T/C |
| --- | --- |
| C#Cc1c(F)ccc2cc(O)cc(-c3ncc4c(N5CC6CCC(C5)N6)nc(OCC56CCCN5CC(F)C6)nc4c3F)c12 (configuration not stated) + COc1c(OCCCN2CCOCC2)ccc2c3n(c(=NC(=O)c4cnc(N)nc4)nc12)CCN3 | 12.9% |
| CC(Cn1ccc(-c2ccc(C#N)c(Cl)c2)n1)NC(=O)c1cc(C(C)O)[nH]n1 (configuration not stated) + CC(Nc1ccc2c(c1)OCCn1cc(N3C(=O)OCC3C(F)F)nc1-2)C(N)=O | 69.8% |
| CNC(=O)c1ccc(N2C(=S)N(c3ccc(C#N)c(C(F)(F)F)c3)C(=O)C2(C)C)cc1F + Cc1nc(NC(=O)N2CCCC2C(N)=O)sc1-c1ccnc(C(C)(C)C(F)(F)F)c1 | 89.1% |
| Cn1ncc(Cl)c1-c1cc(C(=O)NC(CN)Cc2cccc(F)c2)sc1Cl (configuration not stated) + CC(Nc1ncnc2nc[nH]c12)c1cc2cccc(Cl)c2c(=O)n1-c1ccccc1 | 30.3% |

Same assay, conditions: second compound 0.316 µM; first compound 1 µM; active compounds read low

| Compound | viability, T/C |
| --- | --- |
| C#Cc1c(F)ccc2cc(O)cc(-c3ncc4c(N5CC6CCC(C5)N6)nc(OCC56CCCN5CC(F)C6)nc4c3F)c12 (configuration not stated) + COc1c(OCCCN2CCOCC2)ccc2c3n(c(=NC(=O)c4cnc(N)nc4)nc12)CCN3 | 14.6% |
| CC(Cn1ccc(-c2ccc(C#N)c(Cl)c2)n1)NC(=O)c1cc(C(C)O)[nH]n1 (configuration not stated) + CC(Nc1ccc2c(c1)OCCn1cc(N3C(=O)OCC3C(F)F)nc1-2)C(N)=O | 75.5% |
| CNC(=O)c1ccc(N2C(=S)N(c3ccc(C#N)c(C(F)(F)F)c3)C(=O)C2(C)C)cc1F + Cc1nc(NC(=O)N2CCCC2C(N)=O)sc1-c1ccnc(C(C)(C)C(F)(F)F)c1 | 96.7% |
| Cn1ncc(Cl)c1-c1cc(C(=O)NC(CN)Cc2cccc(F)c2)sc1Cl (configuration not stated) + CC(Nc1ncnc2nc[nH]c12)c1cc2cccc(Cl)c2c(=O)n1-c1ccccc1 | 17.8% |

Same assay, conditions: second compound 0.316 µM; first compound 3.16 µM; active compounds read low

| Compound | viability, T/C |
| --- | --- |
| C#Cc1c(F)ccc2cc(O)cc(-c3ncc4c(N5CC6CCC(C5)N6)nc(OCC56CCCN5CC(F)C6)nc4c3F)c12 (configuration not stated) + COc1c(OCCCN2CCOCC2)ccc2c3n(c(=NC(=O)c4cnc(N)nc4)nc12)CCN3 | 11.4% |
| CC(Cn1ccc(-c2ccc(C#N)c(Cl)c2)n1)NC(=O)c1cc(C(C)O)[nH]n1 (configuration not stated) + CC(Nc1ccc2c(c1)OCCn1cc(N3C(=O)OCC3C(F)F)nc1-2)C(N)=O | 76.8% |
| CNC(=O)c1ccc(N2C(=S)N(c3ccc(C#N)c(C(F)(F)F)c3)C(=O)C2(C)C)cc1F + Cc1nc(NC(=O)N2CCCC2C(N)=O)sc1-c1ccnc(C(C)(C)C(F)(F)F)c1 | 98.2% |
| Cn1ncc(Cl)c1-c1cc(C(=O)NC(CN)Cc2cccc(F)c2)sc1Cl (configuration not stated) + CC(Nc1ncnc2nc[nH]c12)c1cc2cccc(Cl)c2c(=O)n1-c1ccccc1 | 5.75% |

Same assay, conditions: second compound 0.316 µM; first compound 10 µM; active compounds read low

| Compound | viability, T/C |
| --- | --- |
| C#Cc1c(F)ccc2cc(O)cc(-c3ncc4c(N5CC6CCC(C5)N6)nc(OCC56CCCN5CC(F)C6)nc4c3F)c12 (configuration not stated) + COc1c(OCCCN2CCOCC2)ccc2c3n(c(=NC(=O)c4cnc(N)nc4)nc12)CCN3 | 3.3% |
| CC(Cn1ccc(-c2ccc(C#N)c(Cl)c2)n1)NC(=O)c1cc(C(C)O)[nH]n1 (configuration not stated) + CC(Nc1ccc2c(c1)OCCn1cc(N3C(=O)OCC3C(F)F)nc1-2)C(N)=O | 63.6% |
| CNC(=O)c1ccc(N2C(=S)N(c3ccc(C#N)c(C(F)(F)F)c3)C(=O)C2(C)C)cc1F + Cc1nc(NC(=O)N2CCCC2C(N)=O)sc1-c1ccnc(C(C)(C)C(F)(F)F)c1 | 88% |
| Cn1ncc(Cl)c1-c1cc(C(=O)NC(CN)Cc2cccc(F)c2)sc1Cl (configuration not stated) + CC(Nc1ncnc2nc[nH]c12)c1cc2cccc(Cl)c2c(=O)n1-c1ccccc1 | 1.5% |

Same assay, conditions: second compound 1 µM; first compound 0.0316 µM; active compounds read low

| Compound | viability, T/C |
| --- | --- |
| C#Cc1c(F)ccc2cc(O)cc(-c3ncc4c(N5CC6CCC(C5)N6)nc(OCC56CCCN5CC(F)C6)nc4c3F)c12 (configuration not stated) + COc1c(OCCCN2CCOCC2)ccc2c3n(c(=NC(=O)c4cnc(N)nc4)nc12)CCN3 | 2.48% |
| CC(Cn1ccc(-c2ccc(C#N)c(Cl)c2)n1)NC(=O)c1cc(C(C)O)[nH]n1 (configuration not stated) + CC(Nc1ccc2c(c1)OCCn1cc(N3C(=O)OCC3C(F)F)nc1-2)C(N)=O | 71.2% |
| CNC(=O)c1ccc(N2C(=S)N(c3ccc(C#N)c(C(F)(F)F)c3)C(=O)C2(C)C)cc1F + Cc1nc(NC(=O)N2CCCC2C(N)=O)sc1-c1ccnc(C(C)(C)C(F)(F)F)c1 | 93.5% |
| Cn1ncc(Cl)c1-c1cc(C(=O)NC(CN)Cc2cccc(F)c2)sc1Cl (configuration not stated) + CC(Nc1ncnc2nc[nH]c12)c1cc2cccc(Cl)c2c(=O)n1-c1ccccc1 | 65.6% |

Same assay, conditions: second compound 1 µM; first compound 0.1 µM; active compounds read low

| Compound | viability, T/C |
| --- | --- |
| C#Cc1c(F)ccc2cc(O)cc(-c3ncc4c(N5CC6CCC(C5)N6)nc(OCC56CCCN5CC(F)C6)nc4c3F)c12 (configuration not stated) + COc1c(OCCCN2CCOCC2)ccc2c3n(c(=NC(=O)c4cnc(N)nc4)nc12)CCN3 | 2.22% |
| CC(Cn1ccc(-c2ccc(C#N)c(Cl)c2)n1)NC(=O)c1cc(C(C)O)[nH]n1 (configuration not stated) + CC(Nc1ccc2c(c1)OCCn1cc(N3C(=O)OCC3C(F)F)nc1-2)C(N)=O | 67.4% |
